Target: GLP1R (Homo sapiens, UniProt P43220)
Test: GLP1R cAMP assay (HTRF), HEK293/GLP-1R/CRE/Luc, Clone 4

Chain of GLP1R (P43220 24-463): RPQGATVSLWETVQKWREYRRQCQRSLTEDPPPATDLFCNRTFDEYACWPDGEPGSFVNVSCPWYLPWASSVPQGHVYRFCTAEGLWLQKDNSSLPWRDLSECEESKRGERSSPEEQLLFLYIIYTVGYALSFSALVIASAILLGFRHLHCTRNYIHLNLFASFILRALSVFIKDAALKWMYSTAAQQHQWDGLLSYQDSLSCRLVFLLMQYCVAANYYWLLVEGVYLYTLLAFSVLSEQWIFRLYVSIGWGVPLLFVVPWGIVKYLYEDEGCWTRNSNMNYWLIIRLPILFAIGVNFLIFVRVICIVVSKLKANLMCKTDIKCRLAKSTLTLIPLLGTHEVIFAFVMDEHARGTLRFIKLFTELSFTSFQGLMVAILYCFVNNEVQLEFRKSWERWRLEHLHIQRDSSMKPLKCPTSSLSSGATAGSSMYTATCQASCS

Row | SMILES | EC50
1 | O=C(O)c1ccc2nc(CN3CC=C(c4nc(OCc5ccc(Cl)cc5F)cs4)CC3)n(C[C@@H]3CCO3)c2c1 [Compound 246, (S)-2-((4-(4-((4-chloro-2-fluorobenzyl)oxy)thiazol-2-yl)-3,6-dihydropyridin-1(2H)-yl)methyl)-1-(oxetan-2-ylmethyl)-1H-benzo[d]imidazole-6-carboxylic acid] | 15 to 150 nM
2 | O=C(O)c1ccc2nc(Cc3cc(F)c(-c4ncc(F)c(OCc5ncc(Cl)cc5F)n4)cc3F)n(C[C@@H]3CCO3)c2n1 [Compound 273, (S)-2-(4-(4-((5-chloro-3-fluoropyridin-2-yl)methoxy)-5-fluoropyrimidin-2-yl)-2,5-difluorobenzyl)-3-(oxetan-2-ylmethyl)-3H-imidazo[4,5-b]pyridine-5-carboxylic acid] | < 15 nM
3 | N#Cc1ccc(COc2cccc(-c3ccc(Nc4nc5ccc(C(=O)O)cc5n4C[C@@H]4CCO4)c(F)c3)n2)c(F)c1 [Compound 320, (S)-2-((4-(6-((4-cyano-2-fluorobenzyl)oxy)pyridin-2-yl)-2-fluorophenyl)amino)-1-(oxetan-2-ylmethyl)-1H-benzo[d]imidazole-6-carboxylic acid] | 15 to 150 nM
4 | O=C(O)c1ccc2nc(Cc3ccc(-c4cccc(OCc5ccc(Cl)cc5F)n4)cc3F)n(C[C@@H]3CCO3)c2c1F [Compound 309, (S)-2-(4-(6-((4-chloro-2-fluorobenzyl)oxy)pyridin-2-yl)-2-fluorobenzyl)-7-fluoro-1-(oxetan-2-ylmethyl)-1H-benzo[d]imidazole-6-carboxylic acid] | < 15 nM
5 | O=C(O)c1ccc2nc(Cc3ccc(-c4nc(OCc5ccc(Cl)cc5F)c(F)cc4F)cc3F)n(C[C@@H]3CCO3)c2c1 [Compound 260, (S)-2-(4-(6-(4-chloro-2-fluorobenzyloxy)-3,5-difluoropyridin-2-yl)-2-fluorobenzyl)-1-(oxetan-2-ylmethyl)-1H-benzo[d]imidazole-6-carboxylic acid] | < 15 nM
6 | O=C(O)c1ccc2nc(Cc3cc(F)c(-c4cccc(OCc5ccc(Cl)cn5)n4)cc3F)n(C[C@@H]3CCO3)c2c1 [Compound 269, (S)-2-(4-(6-((5-chloropyridin-2-yl)methoxy)pyridin-2-yl)-2,5-difluorobenzyl)-1-(oxetan-2-ylmethyl)-1H-benzo[d]imidazole-6-carboxylic acid] | < 15 nM
7 | O=C(O)c1ccc2nc(Cc3ccc(-c4nc(OCc5ccc(Cl)cc5F)c(F)cc4F)c(F)c3)n(C[C@@H]3CCO3)c2n1 [Compound 306, (S)-2-(4-(6-((4-chloro-2-fluorobenzyl)oxy)-3,5-difluoropyridin-2-yl)-3-fluorobenzyl)-3-(oxetan-2-ylmethyl)-3H-imidazo[4,5-b]pyridine-5-carboxylic acid] | < 15 nM
8 | O=C(O)c1ccc2nc(CN3CC=C(c4csc(OCc5ccc(C(F)(F)F)cc5)n4)CC3)n(C[C@@H]3CCO3)c2c1 [Compound 256, (S)-1-(oxetan-2-ylmethyl)-2-((4-(2-((4-(trifluoromethyl)benzyl)oxy)thiazol-4-yl)-3,6-dihydropyridin-1(2H)-yl)methyl)-1H-benzo[d]imidazole-6-carboxylic acid] | 15 to 150 nM
9 | N#Cc1cnc(COc2nc(-c3ccc(Cc4nc5ccc(C(=O)O)nc5n4C[C@@H]4CCO4)cc3F)ncc2F)c(F)c1 [Compound 302, (S)-2-(4-(4-((5-cyano-3-fluoropyridin-2-yl)methoxy)-5-fluoropyrimidin-2-yl)-3-fluorobenzyl)-3-(oxetan-2-ylmethyl)-3H-imidazo[4,5-b]pyridine-5-carboxylic acid] | 15 to 150 nM
10 | N#Cc1ccc(COc2cccc(C3=CCN(Cc4nc5ccc(B(O)O)cc5n4C[C@@H]4CCO4)CC3)n2)c(F)c1 [Compound 328, (S)-(2-((6-((4-cyano-2-fluorobenzyl)oxy)-3′,6′-dihydro-[2,4′-bipyridin]-1′(2′H)-yl)methyl)-1-(oxetan-2-ylmethyl)-1H-benzo[d]imidazol-6-yl)boronic acid] | 15 to 150 nM
11 | N#Cc1ccc(COc2ccc(F)c(-c3ccc(Cc4nc5ccc(C(=O)O)cc5n4C[C@@H]4CCO4)c(F)c3)n2)c(F)c1 [Compound 268, (S)-2-(4-(6-((4-cyano-2-fluorobenzyl)oxy)-3-fluoropyridin-2-yl)-2-fluorobenzyl)-1-(oxetan-2-ylmethyl)-1H-benzo[d]imidazole-6-carboxylic acid] | < 15 nM
12 | N#Cc1ccc(COc2nc(-c3ccc(Cc4nc5ccc(C(=O)O)cc5n4C[C@@H]4CCO4)c(F)c3)ccc2F)c(F)c1 [Compound 264, (S)-2-(4-(6-((4-cyano-2-fluorobenzyl)oxy)-5-fluoropyridin-2-yl)-2-fluorobenzyl)-1-(oxetan-2-ylmethyl)-1H-benzo[d]imidazole-6-carboxylic acid] | < 15 nM
13 | CC1(c2ccc(Cl)cc2F)Oc2cccc(C3=CCN(Cc4nc5ccc(C(=O)O)cc5n4C[C@@H]4CCO4)CC3)c2O1 (stereo partly drawn) [Compound 330, 2-((4-(2-(4-chloro-2-fluorophenyl)-2-methylbenzo[d][1,3]dioxol-4-yl)-5,6-dihydropyridin-1(2H)-yl)methyl)-1-((S)-oxetan-2-ylmethyl)-1H-benzo[d]imidazole-6-carboxylic acid] | < 15 nM
14 | Cc1cc(Cc2nc3ccc(C(=O)O)cc3n2C[C@@H]2CCO2)ccc1-c1cccc(OCc2ccc(Cl)cc2F)n1 [Compound 270, (S)-2-(4-(6-((4-chloro-2-fluorobenzyl)oxy)pyridin-2-yl)-3-methylbenzyl)-1-(oxetan-2-ylmethyl)-1H-benzo[d]imidazole-6-carboxylic acid] | < 15 nM
15 | O=C(O)c1ccc2nc(CN3CC=C(c4cccnc4OCc4ccc(Cl)cc4F)CC3)n(C[C@@H]3CCO3)c2c1 [Compound 329, (S)-2-((2-((4-chloro-2-fluorobenzyl)oxy)-3′,6′-dihydro-[3,4′-bipyridin]-1′(2′H)-yl)methyl)-1-(oxetan-2-ylmethyl)-1H-benzo[d]imidazole-6-carboxylic acid] | 15 to 150 nM
16 | O=C(O)c1ccc2nc(CN3CC=C(c4csc(OCc5ccc(F)cc5Cl)n4)CC3)n(C[C@@H]3CCO3)c2c1 [Compound 254, (S)-2-((4-(2-((2-chloro-4-fluorobenzyl)oxy)thiazol-4-yl)-3,6-dihydropyridin-1(2H)-yl)methyl)-1-(oxetan-2-ylmethyl)-1H-benzo[d]imidazole-6-carboxylic acid] | 15 to 150 nM
17 | O=C(O)c1ccc2nc(CN3CC=C(c4csc(OCc5ccc(OC(F)(F)F)cc5)n4)CC3)n(C[C@@H]3CCO3)c2c1 [Compound 251, (S)-1-(oxetan-2-ylmethyl)-2-((4-(2-((4-(trifluoromethoxy)benzyl)oxy)thiazol-4-yl)-3,6-dihydropyridin-1(2H)-yl)methyl)-1H-benzo[d]imidazole-6-carboxylic acid] | 15 to 150 nM
18 | O=C(O)c1ccc2nc(Cc3ccc(-c4nc(OCc5ccc(Cl)cc5F)ccc4F)c(F)c3)n(C[C@@H]3CCO3)c2c1 [Compound 261, (S)-2-(4-(6-(4-chloro-2-fluorobenzyloxy)-3-fluoropyridin-2-yl)-3-fluorobenzyl)-1-(oxetan-2-ylmethyl)-1H-benzo[d]imidazole-6-carboxylic acid] | < 15 nM
19 | O=C(O)c1ccc2nc(CN3CC=C(c4coc(OCc5ccc(Cl)cc5F)n4)CC3)n(C[C@@H]3CCO3)c2c1 [Compound 248, (S)-2-((4-(2-((4-chloro-2-fluorobenzyl)oxy)oxazol-4-yl)-5,6-dihydropyridin-1(2H)-yl)methyl)-1-(oxetan-2-ylmethyl)-1H-benzo[d]imidazole-6-carboxylic acid] | > 1000 nM
20 | O=C(O)c1ccc2nc(CN3CC=C(c4csc(OCc5ccc(C#CC6CC6)cc5F)n4)CC3)n(C[C@@H]3CCO3)c2c1 [Compound 249, (S)-2-((4-(2-((4-(cyclopropylethynyl)-2-fluorobenzyl)oxy)thiazol-4-yl)-3,6-dihydropyridin-1(2H)-yl)methyl)-1-(oxetan-2-ylmethyl)-1H-benzo[d]imidazole-6-carboxylic acid] | 15 to 150 nM
21 | O=C(O)c1ccc2nc(CN3CC=C(c4csc(OCc5ccc(C(F)(F)F)nc5)n4)CC3)n(C[C@@H]3CCO3)c2c1 [Compound 255, (S)-1-(oxetan-2-ylmethyl)-2-((4-(2-((6-(trifluoromethyl)pyridin-3-yl)methoxy)thiazol-4-yl)-3,6-dihydropyridin-1(2H)-yl)methyl)-1H-benzo[d]imidazole-6-carboxylic acid] | 15 to 150 nM
22 | N#Cc1ccc(COc2cccc(N3CCC(=Cc4nc5ccc(C(=O)O)nc5n4C[C@@H]4CCO4)CC3)n2)c(F)c1 [Compound 314, (S)-2-((1-(6-(4-cyano-2-fluorobenzyloxy)pyridin-2-yl)piperidin-4-ylidene)methyl)-3-(oxetan-2-ylmethyl)-3H-imidazo [4,5-b] pyridine-S-carboxylic acid] | 15 to 150 nM
23 | O=C(O)c1ccc2nc(Cc3cc(F)c(-c4cccc(OCc5ncc(F)cc5F)n4)cc3F)n(C[C@@H]3CCO3)c2n1 [Compound 297, (S)-2-(4-(6-((3,5-difluoropyridin-2-yl)methoxy)pyridin-2-yl)-2,5-difluorobenzyl)-3-(oxetan-2-ylmethyl)-3H-imidazo[4,5-b]pyridine-5-carboxylic acid] | < 15 nM
24 | O=C(O)c1ccc2nc(CN3CC=C(c4cccc(OCc5ccc(Cl)cc5F)n4)CC3)c(Cc3cocn3)n2c1 [Compound 327, 2-((6-((4-chloro-2-fluorobenzyl)oxy)-3′,6′-dihydro-[2,4′-bipyridin]-1′(2′H)-yl)methyl)-3-(oxazol-4-ylmethyl)imidazo[1,2-a]pyridine-6-carboxylic acid] | 15 to 150 nM
25 | N#Cc1ccc(COc2nc(-c3cc(F)c(Cc4nc5ccc(C(=O)O)cc5n4C[C@@H]4CCO4)cc3F)ncc2F)nc1 [Compound 275, (S)-2-(4-(4-((5-cyanopyridin-2-yl)methoxy)-5-fluoropyrimidin-2-yl)-2,5-difluorobenzyl)-1-(oxetan-2-ylmethyl)-1H-benzo[d]imidazole-6-carboxylic acid] | < 15 nM
26 | N#Cc1ccc(COc2cccc(-c3ccn(Cc4nc5ccc(C(=O)O)nc5n4C[C@@H]4CCO4)c(=O)c3)n2)c(F)c1 [Compound 324, (S)-2-((6-((4-cyano-2-fluorobenzyl)oxy)-2′-oxo-[2,4′-bipyridin]-1′(2′H)-yl)methyl)-3-(oxetan-2-ylmethyl)-3H-imidazo[4,5-b]pyridine-5-carboxylic acid] | 15 to 150 nM

— patent US10954221B2, “GLP-1R agonists and uses thereof” (QILU REGOR THERAPEUTICS INC., priority 2019, dated 2021)
